The source of these data is ChEMBL document CHEMBL5360605, “Novel Lactams as CBL-B Inhibitors for Treating Cancer” (ACS Med Chem Lett, 2023).

This experiment deals with E3 ubiquitin-protein ligase CBL-B (Homo sapiens, UniProt Q13191). Nature of the experiment: Inhibition of biotin-tagged Cbl-b (unknown origin) assessed as reduction in LCK ubiquitination using His-LCK as substrate preincubated for 60 mins followed by substrate addition in presence of ATP, MgCl2 and measured after 90 mins by HTRF assay.
Sequence of E3 ubiquitin-protein ligase CBL-B (Q13191 whole entry): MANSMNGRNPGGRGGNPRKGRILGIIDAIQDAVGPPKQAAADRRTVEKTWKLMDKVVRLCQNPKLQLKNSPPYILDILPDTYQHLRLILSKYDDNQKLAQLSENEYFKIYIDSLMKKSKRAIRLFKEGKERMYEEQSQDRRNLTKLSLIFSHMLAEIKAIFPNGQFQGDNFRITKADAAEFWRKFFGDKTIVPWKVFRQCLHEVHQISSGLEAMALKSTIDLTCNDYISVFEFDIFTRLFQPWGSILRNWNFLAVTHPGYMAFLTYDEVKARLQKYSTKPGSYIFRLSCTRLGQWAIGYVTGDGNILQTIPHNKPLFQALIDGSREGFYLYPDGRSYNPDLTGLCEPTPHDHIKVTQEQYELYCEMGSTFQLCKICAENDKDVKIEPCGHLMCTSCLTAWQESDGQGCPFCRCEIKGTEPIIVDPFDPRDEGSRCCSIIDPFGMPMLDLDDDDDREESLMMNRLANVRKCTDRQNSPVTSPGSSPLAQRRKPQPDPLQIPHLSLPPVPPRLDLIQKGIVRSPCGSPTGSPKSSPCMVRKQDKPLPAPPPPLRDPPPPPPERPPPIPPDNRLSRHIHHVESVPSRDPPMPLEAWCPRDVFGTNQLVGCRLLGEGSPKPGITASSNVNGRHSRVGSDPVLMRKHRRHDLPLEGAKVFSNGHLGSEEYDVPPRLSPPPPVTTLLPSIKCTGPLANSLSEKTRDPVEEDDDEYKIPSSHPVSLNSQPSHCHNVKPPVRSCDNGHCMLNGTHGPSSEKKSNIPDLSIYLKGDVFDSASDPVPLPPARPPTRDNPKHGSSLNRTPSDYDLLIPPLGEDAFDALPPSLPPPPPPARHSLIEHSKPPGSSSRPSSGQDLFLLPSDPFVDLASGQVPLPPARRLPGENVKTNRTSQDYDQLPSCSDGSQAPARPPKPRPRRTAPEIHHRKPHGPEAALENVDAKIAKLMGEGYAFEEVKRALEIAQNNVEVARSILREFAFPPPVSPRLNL

Consider `C[C@H](NC1(C)CCC1)c1cc2c(c(C(F)(F)F)c1)CN(c1cccc([C@@H](c3nncn3C)C3COC3)c1)C2=O`, for which the IC50 amounted to 4 nM.
The value for `CCOc1cc([C@]2(c3nncn3C)C[C@@H](C)C2)cc(N2Cc3c(cc(CNC4(C)CCC4)cc3C(F)(F)F)C2=O)n1` was 4 nM.
As for `Cn1cnnc1[C@]1(c2cccc(N3Cc4c(cc(CNC5(C)CCC5)cc4C(F)(F)F)C3=O)c2)C[C@H](Cl)C1`, the figure is 4 nM.
In the case of `CO[C@H]1C[C@](c2cccc(N3Cc4c(cc(CNC5CC6CC6C5)cc4C(F)(F)F)C3=O)c2)(c2nncn2C)C1` (stereo partly specified), the IC50 is 4 nM.
The value for `C[C@H](NC1(C)CCC1)c1cc(Cl)c2c(c1)C(=O)N(c1cccc([C@]3(c4nncn4C)C[C@H](F)C3)c1)C2` was 4 nM; that for `Cn1cnnc1C(c1cccc(N2Cc3c(cc(CNC4(C)CCC4)cc3C(F)(F)F)C2=O)c1)[C@H]1C[C@H](CC#N)C1` (stereo partly specified) was 3 nM.
